Measured values taken from ChEMBL document CHEMBL1152232, “Muscarinic acetylcholine receptor antagonists: SAR and optimization of tyrosine ureas” (Bioorg Med Chem Lett, 2008).

Columns and labels:
[1] = biological target: T1, Muscarinic acetylcholine receptor M1 (Homo sapiens, UniProt P11229); assay: Antagonist activity at human recombinant muscarinic M1 receptor expressed in CHO cells assessed as inhibition of acetylcholine-induced intracellular Ca2+ mobilization by FLIPR assay; format: functional, cell-based
T1 sequence (P11229 whole entry): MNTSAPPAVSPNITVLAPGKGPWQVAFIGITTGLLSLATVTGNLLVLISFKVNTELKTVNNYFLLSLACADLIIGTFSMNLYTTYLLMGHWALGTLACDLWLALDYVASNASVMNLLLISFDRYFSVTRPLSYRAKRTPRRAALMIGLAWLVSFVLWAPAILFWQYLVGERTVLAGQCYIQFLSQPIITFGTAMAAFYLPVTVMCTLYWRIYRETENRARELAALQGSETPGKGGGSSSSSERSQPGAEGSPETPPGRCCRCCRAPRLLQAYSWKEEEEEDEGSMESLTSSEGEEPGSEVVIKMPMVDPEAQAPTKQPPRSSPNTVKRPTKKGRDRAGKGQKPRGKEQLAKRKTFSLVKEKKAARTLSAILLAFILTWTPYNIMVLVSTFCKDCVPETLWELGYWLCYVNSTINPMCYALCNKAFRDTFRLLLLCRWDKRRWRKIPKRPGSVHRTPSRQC

[2] = biological target: Muscarinic acetylcholine receptor M1 and M3 (Homo sapiens) (UniProt P20309+P11229); assay: Selectivity for human recombinant muscarinic M3 receptor over human recombinant muscarinic M1 receptor
[3] = biological target: T2, Muscarinic acetylcholine receptor M2 (Homo sapiens, UniProt P08172); assay: Antagonist activity at human recombinant muscarinic M2 receptor expressed in CHO cells coexpressing chimeric G protein Gqi5 assessed as inhibition of acetylcholine-induced intracellular Ca2+ mobilization by FLIPR assay; format: functional, cell-based
T2 sequence (P08172 whole entry): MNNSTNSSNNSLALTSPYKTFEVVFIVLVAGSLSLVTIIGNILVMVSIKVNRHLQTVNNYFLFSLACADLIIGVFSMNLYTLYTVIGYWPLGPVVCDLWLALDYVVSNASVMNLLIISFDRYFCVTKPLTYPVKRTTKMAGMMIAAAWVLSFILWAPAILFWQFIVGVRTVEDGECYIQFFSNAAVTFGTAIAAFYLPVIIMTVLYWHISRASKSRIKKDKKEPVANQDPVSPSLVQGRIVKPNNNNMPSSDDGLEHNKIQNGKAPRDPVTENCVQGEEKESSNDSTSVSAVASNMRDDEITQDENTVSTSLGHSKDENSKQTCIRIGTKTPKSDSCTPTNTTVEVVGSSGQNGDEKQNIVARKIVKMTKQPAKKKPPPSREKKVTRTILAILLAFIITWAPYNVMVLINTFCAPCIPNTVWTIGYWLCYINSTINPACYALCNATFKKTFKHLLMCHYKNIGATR

[4] = biological target: Muscarinic acetylcholine receptors; M2 & M3 (Homo sapiens) (UniProt P20309+P08172); assay: Selectivity for human recombinant muscarinic M3 receptor over human recombinant muscarinic M2 receptor
[5] = biological target: Muscarinic acetylcholine receptor M3 (Homo sapiens, UniProt P20309); assay: Antagonist activity at human recombinant muscarinic M3 receptor expressed in CHO cells assessed as inhibition of acetylcholine-induced intracellular Ca2+ mobilization by FLIPR assay; format: functional, cell-based
[6] = Permeability across artificial membrane; format: ADME; conditions: PAMPA; read-out: permeability

Sequence of Muscarinic acetylcholine receptor M3 (P20309 whole entry): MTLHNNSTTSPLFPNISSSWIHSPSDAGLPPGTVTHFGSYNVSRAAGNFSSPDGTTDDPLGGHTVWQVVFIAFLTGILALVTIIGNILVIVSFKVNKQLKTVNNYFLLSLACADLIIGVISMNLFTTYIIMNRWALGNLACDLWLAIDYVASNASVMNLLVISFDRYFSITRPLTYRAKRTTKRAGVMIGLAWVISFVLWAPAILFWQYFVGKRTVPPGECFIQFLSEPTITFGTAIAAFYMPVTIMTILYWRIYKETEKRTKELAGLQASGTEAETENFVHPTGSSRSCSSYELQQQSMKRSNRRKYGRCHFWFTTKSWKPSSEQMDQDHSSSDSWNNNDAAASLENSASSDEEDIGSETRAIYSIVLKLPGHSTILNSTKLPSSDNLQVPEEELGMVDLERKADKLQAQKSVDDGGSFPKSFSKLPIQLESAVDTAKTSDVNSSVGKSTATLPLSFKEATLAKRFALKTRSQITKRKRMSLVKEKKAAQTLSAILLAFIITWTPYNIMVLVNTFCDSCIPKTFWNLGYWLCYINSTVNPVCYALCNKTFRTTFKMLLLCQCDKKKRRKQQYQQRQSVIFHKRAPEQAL
Sequence of Muscarinic acetylcholine receptors; M2 & M3 (Homo sapiens) (P20309 whole entry, looked up, one chain of several): as the sequence (P20309 whole entry) above
Sequence of Muscarinic acetylcholine receptor M1 and M3 (Homo sapiens) (P20309 whole entry, looked up, one chain of several): as the sequence (P20309 whole entry) above

Structure (SMILES)	IC50 [1] [nM]	Selectivity ratio [2]	IC50 [3] [nM]	Selectivity ratio [4]	IC50 [5] [nM]	Kb ([1]; read-out: pA2 (converted)) [nM]	Kb ([3]; read-out: pA2 (converted)) [nM]	Kb ([5]; read-out: pA2 (converted)) [nM]	Papp [6] [×10⁻⁶ cm/s]
CCOC(=O)c1ccc(NC(=O)N[C@@H](Cc2ccc(O)cc2)C(=O)NC2CCN(Cc3cccc(C(F)(F)F)c3)C2)cc1 (stereo partly specified)	> 3160	100	631	10	15.8				
C=CC[N+]1(Cc2cccc(O)c2)CCC[C@H](NC(=O)[C@H](Cc2ccc(O)cc2)NC(=O)Nc2ccc(C(=O)OC(C)C)cc2)C1 (stereo partly specified)		100		> 10		15.8	1.58	0.1	
CC(C)OC(=O)c1ccc(NC(=O)N[C@@H](Cc2ccc(O)cc2)C(=O)N[C@H]2CCC[N+](C)(Cc3cccc(O)c3)C2)cc1.[I-] (stereo partly specified)									< 0.3
CCOC(=O)c1ccc(NC(=O)N[C@@H](Cc2ccc(O)cc2)C(=O)NC2CCN(Cc3ccccc3)C2)cc1 (stereo partly specified)	2000	100	200	10	15.8				
CC(C)OC(=O)c1ccc(NC(=O)N[C@@H](Cc2ccc(O)cc2)C(=O)NC2CCN(Cc3ccc(O)cc3)C2)cc1 (stereo partly specified)	1000	100	79.4	> 10	5.01				
CCOC(=O)c1ccc(NC(=O)N[C@@H](Cc2ccc(O)cc2)C(=O)NC2CCN(CC)C2)cc1 (stereo partly specified)	> 3160	100	2510	10	794				
CCOC(=O)c1ccc(NC(=O)N[C@@H](Cc2ccc(O)cc2)C(=O)NC2CCN(Cc3cccc(Cl)c3)C2)cc1 (stereo partly specified)	1260	100	126	10	7.94				
CCOC(=O)c1ccc(NC(=O)N[C@@H](Cc2ccc(O)cc2)C(=O)NC2CCN(Cc3ccccc3OC)C2)cc1 (stereo partly specified)	1000	100	158	10	50.1				
CCOC(=O)c1ccc(NC(=O)N[C@@H](Cc2ccc(O)cc2)C(=O)NC2CCN(Cc3cccc(OC)c3)C2)cc1 (stereo partly specified)	2510	100	316	10	25.1				
